These results are taken from patent EP3840748B1, “SUBSTITUTED IMIDAZOLES FOR THE INHIBITION OF TGF-BETA AND METHODS OF TREATMENT” (Clavius Pharmaceuticals, LLC, priority 2018, dated 2020).

Assay [1] concerns TGF-beta 1 stimulated SBE-bla HEK 293T. Put plainly: GeneBLAzer beta-lactamase (bla) reporter, TGF-beta 1 stimulated SBE-bla HEK 293T cell-based assay (ThermoFisher SelectScreen). Particulars: Homo sapiens; SBE-bla HEK 293T cells; 30 minutes pre-incubation with inhibitor; TGF-beta 1 0.03 nM, 5 hours; inhibitor 10,000nM to 0.316nM; read-out: Cells (SBE_HEK293T) IC50. The source says:
(§1) Table 2, below, describes the results of assays carried out on some compounds provided by the present disclosure. Exemplified compounds are confirmed to inhibit ALK5 activity in enzyme and cellular assays in the following assay systems conducted by ThermoFisher in Madison, WI according to their commercially available protocols.
ThermoFisher SelectScreen™ Cell-based Pathway Profiling Service GeneBLAzer Beta-lactamase (bla) Reporter Technology - TGF-beta 1 stimulated SBE-bla HEK 293T Cell-based Assay
SBE-bla HEK 293T cells are thawed and re-suspended in Assay Media (OPTI-MEM, 0.5% dialyzed FBS, 0.1 mM NEAA, 1 mM Sodium Pyruvate, 100 U/mL/100 µg/mL Pen/Strep) to a concentration of 625,000 cells/mL. 32 µL of cell suspension (20,000 cells) is added to each well of a 384-well Poly-D-Lysine assay plate. Cells in Assay Media are incubated for 16-24 hours in the plate at 37°C/5% CO2 in a humidified incubator. 4 µL of a 10X serial dilution of ALK5 inhibitors (10x = 100,000-3.16 nM) is added to appropriate wells of the plate and pre-incubated at 37°C/5% CO2 in a humidified incubator with cells for 30 minutes. Final concentration of inhibitor ranged from 10,000nM to 0.316nM. 4 µL of 10X TGF-beta 1 (final concentration of 0.03 nM) is added to wells containing the inhibitors. The plate is incubated for 5 hours at 37°C/5% CO2 in a humidified incubator. 8 µL of 1 µM Substrate Loading Solution is added to each well and the plate is incubated for 2 hours at room temperature before being read on a fluorescence plate reader. Percent inhibition is determined compared to DMSO only control (maximal TGF-beta 1 stimulation) and sigmoidal dose response curve fit yielded IC50 values as indicated in Table 2. TABLE 2: Biological activity assay results

The target in assay [2] is T1, TGFBR1 (ALK5) (Homo sapiens, UniProt P36897).
T1 sequence (P36897 34-503): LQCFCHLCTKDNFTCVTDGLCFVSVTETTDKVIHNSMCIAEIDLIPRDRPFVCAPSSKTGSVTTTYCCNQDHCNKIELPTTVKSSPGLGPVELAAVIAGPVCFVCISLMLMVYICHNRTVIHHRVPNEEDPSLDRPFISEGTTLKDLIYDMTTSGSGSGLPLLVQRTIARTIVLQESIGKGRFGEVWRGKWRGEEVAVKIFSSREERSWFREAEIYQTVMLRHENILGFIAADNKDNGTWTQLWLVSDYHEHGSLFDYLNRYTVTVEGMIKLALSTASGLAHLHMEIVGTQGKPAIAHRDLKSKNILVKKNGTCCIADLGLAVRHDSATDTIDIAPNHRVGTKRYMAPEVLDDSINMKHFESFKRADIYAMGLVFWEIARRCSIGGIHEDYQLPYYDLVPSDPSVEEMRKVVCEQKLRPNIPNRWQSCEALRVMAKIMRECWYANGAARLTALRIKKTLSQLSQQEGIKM
Briefly: LanthaScreen Eu Kinase Binding Assay TGFBR1 (ALK5) (ThermoFisher SelectScreen). Particulars: ALK5 5 nM, Tracer #178 5 nM, Eu-anti-GST antibody 2 nM, 1 hour at room temperature, 1% DMSO; read-out: TβRI (ALK5) Binding IC50.
Source text: as §1
ThermoFisher SelectScreen™ Biochemical Kinase Profiling Service, LanthaScreen™Eu Kinase Binding Assay TGFBR1 (ALK5)
Exemplified compounds are screened in 1% DMSO (final concentration) by 3-fold serial dilutions from 10,000 nM to 0.316 nM or at single concentrations of 10,000, 1000 and 100 nM according to the following protocol. To low volume, white 384-well plates (Greiner Cat#784207) add 160 nL 100x compound in 100% DMSO, 3.84 uL kinase buffer (50 mM HEPES, pH 7.5, 0.01% BRIJ-35, 10 mM MgCl2, 1 mM EGTA), 8 uL 2x kinase/antibody mixture in kinase buffer (final ALK5 concentration of 5 nM; final Eu-anti-GST antibody concentration of 2 nM), 4 uL 4x Tracer #178 in kinase buffer (final concentration of 5 nM). Gently shake the plates for 30 seconds and incubate at room temperature for 1 hour before reading fluorescence on a plate reader. Percent inhibition is determined compared to DMSO only control (maximal ALK5 tracer binding) and sigmoidal dose response curve fit yielded IC50 values as indicated in Table 2.
In general terms: In TR-FRET formats the signal depends on donor and acceptor labels being close together.

The structures appear in SMILES notation.

Turning to `CC(C)n1ccc(-c2nc3n(c2-c2ccc4ncc(C(N)=O)n4c2)CCC3)n1` [Compound 7, 5-{3-(1-Isopropyl-1H-pyrazol-3-yl)-1,4-diazabicyclo[3.3.0]octa-2,4-dien-2-yl}-1,3a-diaza-3-indenecarboxamide], the IC50 – broadly, the concentration that gives 50% inhibition – was determined as 248 nM in assay [1] and 5.5 nM in assay [2].

For the compound `NC(=O)c1cnc2ccc(-c3c(-c4ccn(C5CC5)n4)nc4n3CCC4)cn12` [Compound 8, 5-{3-(1-Cyclopropyl-1H-pyrazol-3-yl)-1,4-diazabicyclo[3.3.0]octa-2,4-dien-2-yl}-1,3a-diaza-3-indenecarboxamide], the results for the IC50 in assay [1] and in assay [2] were 84 nM and 3.3 nM, respectively.

For `Oc1ncnc2ccc(-c3c(-c4ccn(C5CC5)n4)nc4n3CCC4)cc12` [Compound 16, 6-{3-(1-Cyclopropyl-1H-pyrazol-3-yl)-1,4-diazabicyclo[3.3.0]octa-2,4-dien-2-yl}-3H-quinazolin-4-one], the IC50 in assay [1] was 117 nM; in assay [2], 2.6 nM.

On to `Cn1cnc2ccc(-c3c(-c4ccn(C5CC5)n4)nc4n3CCC4)cc2c1=O` [Compound 18, 6-{3-(1-Cyclopropyl-1H-pyrazol-3-yl)-1,4-diazabicyclo[3.3.0]octa-2,4-dien-2-yl}-3-methyl-3H-quinazolin-4-one], for which the IC50 in assay [1] came out at 69 nM; in assay [2], 6.7 nM.

Take `Cn1cnc2ccc(-c3c(-c4ccn(C5CC5)n4)nc4n3CCN4)cc2c1=O` [Compound 22, 6-{3-(1-Cyclopropyl-1H-pyrazol-3-yl)-1,4,6-triazabicyclo[3.3.0]octa-2,4-dien-2-yl}-3-methyl-3H-quinazolin-4-one]: the results for the IC50 in assay [1] and in assay [2] were 27.4 nM and 7.2 nM, respectively.

For `CC(C)n1ccc(-c2nc3occn3c2-c2ccc3nc[nH]c(=O)c3c2)n1` [Compound 23, 6-{7-(1-Isopropyl-1H-pyrazol-3-yl)-4-oxa-1,6-diazabicyclo[3.3.0]octa-2,5,7-trien-8-yl}-3H-quinazolin-4-one], the IC50 turned out to be 239 nM in assay [1] and 5.2 nM in assay [2].

With `O=c1[nH]cnc2ccc(-c3c(-c4ccn(C5CC5)n4)nc4occn34)cc12` [Compound 24, 6-{7-(1-Cyclopropyl-1H-pyrazol-3-yl)-4-oxa-1,6-diazabicyclo[3.3.0]octa-2,5,7-trien-8-yl}-3H-quinazolin-4-one], the IC50 was determined as 37 nM in assay [1] and 1.8 nM in assay [2].

In the case of `CC(C)n1ccc(-c2nc3occn3c2-c2ccc3ncn(C)c(=O)c3c2)n1` [Compound 25, 6-{7-(1-Isopropyl-1H-pyrazol-3-yl)-4-oxa-1,6-diazabicyclo[3.3.0]octa-2,5,7-trien-8-yl}-3-methyl-3H-quinazolin-4-one], the IC50 in assay [1] was found to be 238 nM; in assay [2], 7.2 nM.

`Cn1cnc2ccc(-c3c(-c4ccn(C5CC5)n4)nc4occn34)cc2c1=O` [Compound 26, 6-{7-(1-Cyclopropyl-1H-pyrazol-3-yl)-4-oxa-1,6-diazabicyclo[3.3.0]octa-2,5,7-trien-8-yl}-3-methyl-3H-quinazolin-4-one]: the figures for the IC50 in assay [1] and in assay [2] were 33.8 nM and 3.1 nM, respectively.

As for `O=c1c2cc(-c3c(-c4ccn(C5CC5)n4)nc4n3CCC4)ccc2ncn1CCN1CCOCC1` [Compound 28, 6-{3-(1-Cyclopropyl-1H-pyrazol-3-yl)-1,4-diazabicyclo[3.3.0]octa-2,4-dien-2-yl}-3-(2-morpholinoethyl)-3H-quinazolin-4-one], the half-maximal inhibitory concentration (IC50) in assay [2] worked out at 107 nM.

As to `O=c1[nH]cnc2ccc(-c3c(-c4ccn(CC(F)F)n4)nc4n3CCC4)cc12` [Compound 49, 6-{3-[1-(2,2-Difluoroethyl)-1H-pyrazol-3-yl]-1,4-diazabicyclo[3.3.0]octa-2,4-dien-2-yl}-3H-quinazolin-4-one], the IC50 in assay [1] was 2400 nM; in assay [2], 52 nM.

Take `Cn1cnc2ccc(-c3c(-c4ccn(CC(F)F)n4)nc4n3CCC4)cc2c1=O` [Compound 50, 6-{3-[1-(2,2-Difluoroethyl)-1H-pyrazol-3-yl]-1,4-diazabicyclo[3.3.0]octa-2,4-dien-2-yl}-3-methyl-3H-quinazolin-4-one]: the 50% inhibitory concentration (IC50) in assay [1] was determined as 253 nM; in assay [2] it was 90 nM.

Regarding `CC(C)(O)c1cnc2ccc(-c3c(-c4ccn(C5CC5)n4)nc4n3CCC4)cn12` [Compound 75, 2-(6-(2-(1-Cyclopropyl-1H-pyrazol-3-yl)-6,7-dihydro-5H-pyrrolo[1,2-a]imidazol-3-yl)imidazo[1,2-a]pyridin-3-yl)propan-2-ol], the IC50 in assay [1] came to 930 nM; in assay [2] it was 66 nM.

As to `CS(=O)(=O)c1ccc(-c2cc(-c3c(-c4ccn(C5CC5)n4)nc4n3CCC4)ccn2)cc1` [Compound 86, 2-(1-Cyclopropyl-1H-pyrazol-3-yl)-3-(2-(4-(methylsulfonyl)phenyl)pyridin-4-yl)-6,7-dihydro-5H-pyrrolo[1,2-a]imidazole], the figures for the 50% inhibitory concentration (IC50) in assay [1] and in assay [2] were 1400 nM and 129 nM, respectively.

Regarding `O=C(NC1CCOCC1)c1ccc(-c2cc(-c3c(-c4ccn(C5CC5)n4)nc4n3CCC4)ccn2)cc1` [Compound 88, 4-(4-(2-(1-Cyclopropyl-1H-pyrazol-3-yl)-6,7-dihydro-5H-pyrrolo[1,2-a]imidazol-3-yl)pyridin-2-yl)-N-(tetrahydro-2H-pyran-4-yl)benzamide], the IC50 in assay [1] came to 988 nM; in assay [2] it was 55 nM.

As for `Cn1cnc2ccc(-c3c(-c4ccn(C5CC5)n4)nc4sccn34)cc2c1=O` [Compound 89, 6-{7-(1-Cyclopropyl-1H-pyrazol-3-yl)-4-thia-1,6-diazabicyclo[3.3.0]octa-2,5,7-trien-8-yl}-3-methyl-3H-quinazolin-4-one], the IC50 in assay [1] is 27 nM; in assay [2], 2.5 nM.

For `O=c1[nH]cnc2ccc(-c3c(-c4ccn(C5CC5)n4)nc4sccn34)cc12` [Compound 90, 6-{7-(1-Cyclopropyl-1H-pyrazol-3-yl)-4-thia-1,6-diazabicyclo[3.3.0]octa-2,5,7-trien-8-yl}-3H-quinazolin-4-one], the IC50 is 35.6 nM in assay [1] and 2.5 nM in assay [2].

Regarding `CC(C)n1ccc(-c2nc3sccn3c2-c2ccc3ncn(C)c(=O)c3c2)n1` [Compound 91, 6-(6-(1-Isopropyl-1H-pyrazol-3-yl)imidazo [2,1-b]thiazol-5-yl)-3-methylquinazolin-4(3H)-one], the IC50 was 1100 nM in assay [1] and 22 nM in assay [2].

`Oc1ncnc2ccc(-c3c(-c4ccn(C5CC5)n4)nc4n3CCC4)cc12` [Compound 92, 6-(2-(1-Cyclopropyl-1H-pyrazol-3-yl)-6,7-dihydro-5H-pyrrolo[1,2-a]imidazol-3-yl)quinazolin-4-ol]: the IC50 in assay [1] was determined as 57 nM; in assay [2], 11 nM.

Consider `O=C(c1ccc(-c2cc(-c3c(-c4ccn(C5CC5)n4)nc4n3CCC4)ccn2)cc1)N1CCOCC1` [Compound 93, (4-(4-(2-(1-Cyclopropyl-1H-pyrazol-3-yl)-6,7-dihydro-5H-pyrrolo[1,2-a]imidazol-3-yl)pyridin-2-yl)phenyl)(morpholino)methanone], for which the IC50 in assay [2] worked out at 244 nM.

For `Cn1cnc2ccc(-c3c(-c4ccn(C5CCC5)n4)nc4n3CCC4)cc2c1=O` [Compound 94, 6-(2-(1-Cyclobutyl-1H-pyrazol-3-yl)-6,7-dihydro-5H-pyrrolo[1,2-a]imidazol-3-yl)-3-methylquinazolin-4(3H)-one], the IC50 is 4080 nM in assay [1] and 27 nM in assay [2].
